Results from patent US9120753B2, “Phenol derivatives and pharmaceutical or cosmetic use thereof” (GALDERMA RESEARCH & DEVELOPMENT, priority 2009, dated 2015).

Tested on: not given
Experiment: not given
Settings: not given

| melting point | Structure (SMILES) |
| --- | --- |
| 184 °C | Oc1ccccc1CNc1cncc(Br)c1 [Compound 1, 2-[(5-Bromopyridin-3-ylamino)methyl]phenol] |

Target: T1, AR receptor (Homo sapiens, UniProt P10275)
T1 construct: expressed in transfected cells; host or cells: PALM (PC3 stably transfected with PMMTV-neo-Luc and pSG5puro-AR)
T1 sequence (P10275 1-920): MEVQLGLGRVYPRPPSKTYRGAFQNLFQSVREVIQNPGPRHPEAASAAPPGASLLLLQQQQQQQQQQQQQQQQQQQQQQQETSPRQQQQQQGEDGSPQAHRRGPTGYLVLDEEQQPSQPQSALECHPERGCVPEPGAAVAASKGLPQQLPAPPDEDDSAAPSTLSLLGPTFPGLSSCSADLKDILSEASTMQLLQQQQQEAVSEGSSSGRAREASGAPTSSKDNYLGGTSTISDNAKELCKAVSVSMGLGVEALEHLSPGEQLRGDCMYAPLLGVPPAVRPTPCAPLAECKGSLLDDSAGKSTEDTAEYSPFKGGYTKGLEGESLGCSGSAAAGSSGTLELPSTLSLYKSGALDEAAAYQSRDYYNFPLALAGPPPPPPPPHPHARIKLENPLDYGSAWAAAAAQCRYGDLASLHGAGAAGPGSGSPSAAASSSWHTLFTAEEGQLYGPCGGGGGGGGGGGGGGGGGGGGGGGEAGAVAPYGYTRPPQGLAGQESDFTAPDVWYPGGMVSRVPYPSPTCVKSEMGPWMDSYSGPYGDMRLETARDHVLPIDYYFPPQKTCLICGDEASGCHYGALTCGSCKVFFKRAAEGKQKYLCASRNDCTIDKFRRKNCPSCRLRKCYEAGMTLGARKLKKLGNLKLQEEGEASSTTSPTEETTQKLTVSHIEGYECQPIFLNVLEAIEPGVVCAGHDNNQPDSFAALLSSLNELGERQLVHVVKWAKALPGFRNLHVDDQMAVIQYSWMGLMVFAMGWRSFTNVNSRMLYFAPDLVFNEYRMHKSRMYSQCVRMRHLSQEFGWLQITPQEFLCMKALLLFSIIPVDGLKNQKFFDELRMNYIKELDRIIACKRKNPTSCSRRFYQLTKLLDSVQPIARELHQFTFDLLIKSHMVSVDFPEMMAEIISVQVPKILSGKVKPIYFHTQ
Experiment: transactivation test in PALM (PC3 Androgen receptor Luciferase MMTV) cell line, cross curves against methyltrienolone
Type: cell-based
Settings: cross curves vs reference agonist methyltrienolone, read-out: Kdapp (apparent dissociation constant)
Method: The compounds according to the invention show inhibitory properties on receptors of AR type. This AR receptor-inhibiting activity is measured in a transactivation test through the KdR (resting), KdA (active) and Kdapp (apparent) dissociation constants according to the method set out in J. Molecular Biology (1965), 12(1), 88-118, Monod J. et al.
The expression “AR-type receptor inhibitor” means, according to the invention, any compound which has a Kdapp dissociation constant of less than or equal to 1 μM, and a KdR/Kda ratio ≦10, in a transactivation test.
The transactivation test is carried out in the PALM (PC3 Androgen receptor Luciferase MMTV) cell line which is a stable transfectant containing the PMMTV-neo-Luc (reporter gene) and pSG5puro-AR plasmids.
In this study, the affinity of each product for the 2 receptor states (KdR and KdA) is determined, as is an apparent Kd (Kdpp). This constant is a result of the 2 Kd, but also depends on the initial equilibrium of the receptor between the active state and the resting state (L0) and on its expression level. It is determined by means of the following formula: 1/KdApp=(L0/(1+L0))x(1/KdR)+(1/(1+L0))x(1/KdA)
To determine these constants, “cross curves” of the test product against a reference agonist, methyltrienolone, are produced in 96-well plates. The test product is used at 10 concentrations and the reference agonist at 7 concentrations.

| Structure (SMILES) | Kd |
| --- | --- |
| N#Cc1cncc(NCc2ccccc2O)c1 [Compound 4, 5-(2-Hydroxybenzylamino)nicotinonitrile] | 200 nM |
| CCC(Nc1cncc(Br)c1)c1ccccc1O (stereo not drawn) [Compound 9, 2-[1-(5-Bromopyridin-3-ylamino)propyl]phenol] | 60 nM |
| Cc1cncc(NCc2ccccc2O)c1 [Compound 14, 2-[(5-Methylpyridin-3-ylamino)methyl]phenol] | 15 nM |

Continued by falling Kd, values first:

| Kd | Structure (SMILES) |
| --- | --- |
| 6 nM | Oc1ccccc1CNc1cncc(Br)c1 [Compound 1, 2-[(5-Bromopyridin-3-ylamino)methyl]phenol] |
| 5 nM | Oc1cccc(F)c1CNc1cncc(Br)c1 [Compound 2, 2-[(5-Bromopyridin-3-ylamino)methyl]-3-fluorophenol] |
